What was measured:
Pseudomonas aeruginosa [1] = experiment: Inhibition of LasR-dependent quorum sensing activity in Pseudomonas aeruginosa MH602 harboring GFP-fused […] LasB promoter assessed as inhibition of 3-oxo-dodecanoyl HSL-induced GFP expression at 2 mM measured after 8 hrs by fluorescence assay relative to control
Pseudomonas aeruginosa [2] = experiment: Inhibition of LasR-dependent quorum sensing activity in Pseudomonas aeruginosa MH602 harboring GFP-fused […] LasB promoter assessed as inhibition of 3-oxo-dodecanoyl HSL-induced GFP expression at 2 mM measured after 24 hrs by fluorescence assay relative to control
Pseudomonas aeruginosa [3] = experiment: Inhibition of LasR-dependent quorum sensing activity in Pseudomonas aeruginosa MH602 harboring GFP-fused […] LasB promoter assessed as inhibition of 3-oxo-dodecanoyl HSL-induced GFP expression at 1 mM measured after 8 hrs by fluorescence assay relative to control
Pseudomonas aeruginosa [4] = experiment: Inhibition of LasR-dependent quorum sensing activity in Pseudomonas aeruginosa MH602 harboring GFP-fused […] LasB promoter assessed as inhibition of 3-oxo-dodecanoyl HSL-induced GFP expression at 1 mM measured after 24 hrs by fluorescence assay relative to control
Pseudomonas aeruginosa [5] = experiment: Inhibition of LasR-dependent quorum sensing activity in Pseudomonas aeruginosa MH602 harboring GFP-fused […] LasB promoter assessed as inhibition of 3-oxo-dodecanoyl HSL-induced GFP expression at 500 uM measured after 8 hrs by fluorescence assay relative to control
Pseudomonas aeruginosa [6] = experiment: Inhibition of LasR-dependent quorum sensing activity in Pseudomonas aeruginosa MH602 harboring GFP-fused […] LasB promoter assessed as inhibition of 3-oxo-dodecanoyl HSL-induced GFP expression at 500 uM measured after 24 hrs by fluorescence assay relative to control
Escherichia coli [7] = experiment: Inhibition of LuxR-dependent quorum sensing activity in Escherichia coli MT102 harboring pJBA132 assessed as inhibition of OHHL-induced GFP expression at 2 mM measured after 8 hrs by fluorescence assay relative to control
Escherichia coli [8] = experiment: Inhibition of LuxR-dependent quorum sensing activity in Escherichia coli MT102 harboring pJBA132 assessed as inhibition of OHHL-induced GFP expression at 2 mM measured after 24 hrs by fluorescence assay relative to control
Escherichia coli [9] = experiment: Inhibition of LuxR-dependent quorum sensing activity in Escherichia coli MT102 harboring pJBA132 assessed as inhibition of OHHL-induced GFP expression at 1 mM measured after 8 hrs by fluorescence assay relative to control
Escherichia coli [10] = experiment: Inhibition of LuxR-dependent quorum sensing activity in Escherichia coli MT102 harboring pJBA132 assessed as inhibition of OHHL-induced GFP expression at 1 mM measured after 24 hrs by fluorescence assay relative to control
Escherichia coli [11] = experiment: Inhibition of LuxR-dependent quorum sensing activity in Escherichia coli MT102 harboring pJBA132 assessed as inhibition of OHHL-induced GFP expression at 500 uM measured after 8 hrs by fluorescence assay relative to control
Pseudomonas aeruginosa [12] = experiment: Growth inhibition of Pseudomonas aeruginosa MH602 at 2 mM after 8 hrs relative to control; conditions: MH602, 8 h, read-out: GI
Pseudomonas aeruginosa [13] = experiment: Growth inhibition of Pseudomonas aeruginosa MH602 at 2 mM after 24 hrs relative to control; conditions: MH602, 24 h, read-out: GI
Pseudomonas aeruginosa [14] = experiment: Growth inhibition of Pseudomonas aeruginosa MH602 at 1 mM after 8 hrs relative to control; conditions: MH602, 8 h, read-out: GI
Pseudomonas aeruginosa [15] = experiment: Growth inhibition of Pseudomonas aeruginosa MH602 at 1 mM after 24 hrs relative to control; conditions: MH602, 24 h, read-out: GI
Pseudomonas aeruginosa [16] = experiment: Growth inhibition of Pseudomonas aeruginosa MH602 at 500 uM after 8 hrs relative to control; conditions: MH602, 8 h, read-out: GI
Pseudomonas aeruginosa [17] = experiment: Growth inhibition of Pseudomonas aeruginosa MH602 at 500 uM after 24 hrs relative to control; conditions: MH602, 24 h, read-out: GI
Escherichia coli [18] = experiment: Growth inhibition of Escherichia coli MT102 at 2 mM after 8 hrs relative to control; conditions: MT102, 8 h, read-out: GI
Escherichia coli [19] = experiment: Growth inhibition of Escherichia coli MT102 at 2 mM after 24 hrs relative to control; conditions: MT102, 24 h, read-out: GI
Escherichia coli [20] = experiment: Growth inhibition of Escherichia coli MT102 at 1 mM after 8 hrs relative to control; conditions: MT102, 8 h, read-out: GI
Escherichia coli [21] = experiment: Growth inhibition of Escherichia coli MT102 at 1 mM after 24 hrs relative to control; conditions: MT102, 24 h, read-out: GI
Escherichia coli [22] = experiment: Growth inhibition of Escherichia coli MT102 at 500 uM after 8 hrs relative to control; conditions: MT102, 8 h, read-out: GI
Escherichia coli [23] = experiment: Growth inhibition of Escherichia coli MT102 at 500 uM after 24 hrs relative to control; conditions: MT102, 24 h, read-out: GI
Pseudomonas aeruginosa [24] = experiment: Growth inhibition of Pseudomonas aeruginosa PA14 at 2 mM after 24 hrs relative to control; conditions: 2000 µM
[25] = tested on: Pseudomonas aeruginosa PA14; experiment: Inhibition of quorum sensing-regulated biofilm formation in Pseudomonas aeruginosa PA14 at 2 mM after overnight incubation by crystal violet staining based assay relative to control
[26] = tested on: Pseudomonas aeruginosa PA14; experiment: Inhibition of quorum sensing-regulated pyocyanin production in Pseudomonas aeruginosa PA14 at 2 mM after 24 hrs relative to control
Escherichia coli [27] = experiment: Inhibition of LuxR-dependent quorum sensing activity in Escherichia coli MT102 harboring pJBA132 assessed as inhibition of OHHL-induced GFP expression at 500 uM measured after 24 hrs by fluorescence assay relative to control

| Structure (SMILES) | inhibition (Pseudomonas aeruginosa [1]) [%] | inhibition (Pseudomonas aeruginosa [2]) [%] | inhibition (Pseudomonas aeruginosa [3]) [%] | inhibition (Pseudomonas aeruginosa [5]) [%] | inhibition (Escherichia coli [7]) [%] | inhibition (Escherichia coli [11]) [%] | inhibition at 2000 µM (Pseudomonas aeruginosa [12]) [%] | inhibition at 2000 µM (Pseudomonas aeruginosa [13]) [%] | inhibition at 1000 µM (Pseudomonas aeruginosa [14]) [%] | inhibition at 1000 µM (Pseudomonas aeruginosa [15]) [%] | inhibition at 500 µM (Pseudomonas aeruginosa [16]) [%] | inhibition at 500 µM (Pseudomonas aeruginosa [17]) [%] | inhibition at 2000 µM (Escherichia coli [18]) [%] | inhibition at 2000 µM (Escherichia coli [19]) [%] | inhibition at 1000 µM (Escherichia coli [20]) [%] | inhibition at 1000 µM (Escherichia coli [21]) [%] | inhibition at 500 µM (Escherichia coli [22]) [%] | inhibition at 500 µM (Escherichia coli [23]) [%] | growth inhibition (GI) (Pseudomonas aeruginosa [24]) | inhibition [25] [%] | further results |
| --- | --- | --- | --- | --- | --- | --- | --- | --- | --- | --- | --- | --- | --- | --- | --- | --- | --- | --- | --- | --- | --- |
| CC(=O)OC[C@H]1O[C@@H](OC(C)=O)[C@H](NC(=O)Cc2ccc(C(F)(F)F)cc2)[C@@H](OC(C)=O)[C@@H]1OC(C)=O | 20.1 | 7 | 9.2 | 2.5 | 11.3 | 8.6 | 0 | 0 | 0 | 0 | 0 | 0 | 0 | 0 | 0 | 1.1 | 0 | 0.9 | Non-Toxic | 19.3 | inhibition (Pseudomonas aeruginosa [4]): 5.6%; inhibition (Pseudomonas aeruginosa [6]): 5.9%; inhibition (Escherichia coli [8]): 61.7%; inhibition (Escherichia coli [9]): 13%; inhibition (Escherichia coli [10]): 27.2% |
| O=C(Cc1ccc(C(F)(F)F)cc1)N[C@@H]1[C@@H](O)[C@H](O)[C@@H](CO)O[C@H]1O | 3.3 | 10.6 | 7.1 | 2.4 | 12.8 | 11.4 | 0 | 5.8 | 0 | 7.8 | 0 | 4.4 | 0 | 2.5 | 0 | 0 | 0 | 1.2 | Non-Toxic | 17.8 | inhibition (Pseudomonas aeruginosa [4]): 10.3%; inhibition (Pseudomonas aeruginosa [6]): 10.6%; inhibition (Escherichia coli [9]): 10.1%; inhibition [26]: 6.6% |
| O=C(CCCc1ccccc1)N[C@@H]1[C@@H](O)[C@H](O)[C@@H](CO)O[C@H]1O | 38.9 | 17.4 | 9.9 | 5.6 | 76.2 | 8.7 | 15.8 | 0 | 2.1 | 2 | 2.6 | 0 | 21.2 | 2.7 | 0 | 8.8 | 17.9 | 7.7 | Non-Toxic | 4.8 | inhibition (Escherichia coli [8]): 85%; inhibition (Escherichia coli [9]): 43.4%; inhibition (Escherichia coli [10]): 46.7%; inhibition (Escherichia coli [27]): 4.3% |
| COc1ccc(CC(=O)N[C@@H]2[C@@H](O)[C@H](O)[C@@H](CO)O[C@H]2O)cc1 | 0.8 | 3 | 7.5 | 3.2 | 3.5 | 6.7 | 0 | 0 | 0 | 3.3 | 0 | 2.9 | 0 | 3 | 0 | 0 | 0 | 0 | Non-Toxic | 16.6 | inhibition (Escherichia coli [8]): 2.6%; inhibition (Escherichia coli [9]): 10.1%; inhibition (Escherichia coli [10]): 20.2%; inhibition (Escherichia coli [27]): 16% |
| COc1ccc(CC(=O)N[C@H]2[C@H](OC(C)=O)O[C@H](COC(C)=O)[C@@H](OC(C)=O)[C@@H]2OC(C)=O)cc1 | 0.9 | 18.6 | 9.6 | 4.2 | – | 6.6 | 0 | 0 | 0 | 0 | 0 | 3.9 | 0 | 0 | 0 | 0 | 0 | 4.5 | Non-Toxic | 5.6 | inhibition (Pseudomonas aeruginosa [4]): 19.4%; inhibition (Pseudomonas aeruginosa [6]): 17.8%; inhibition (Escherichia coli [8]): 25.4%; inhibition (Escherichia coli [10]): 28.7%; inhibition [26]: 0.4% |

Reference: ChEMBL document CHEMBL3875216, “Synthesis of antimicrobial glucosamides as bacterial quorum sensing mechanism inhibitors” (Bioorg Med Chem, 2017)
